One assay has as its system MMP-9 mRNA. The assay can be described thus: Real-time PCR of retinal mRNA after ischaemia/reperfusion: MMP-9. To be noted: 100 μM SAC pre-treatment, 24 hours after I/R; control 0.46±0.15, vehicle 1.97±0.38; n=6. It counts as in vivo, Wistar rats. How it is done:
(§1) The rats (200-250 g) were anaesthetized and placed in a stereotaxic frame. The anterior chamber of one eye was cannulated with a 30-gauge needle connected to a 0.9% saline reservoir; this caused a high IOP (HIOP) of 120 mmHg for 60 minutes. Eye fundus whitening and a low ERG response confirmed induction of an ischaemic insult. A sham procedure was carried out on the controls. Drug administration involved the pre-administration (15-minute before 60-minute HIOP induced retinal ischaemia) of SAC (25, 50, 100 μM) or vehicle (saline; control). The ischemic eye of each test rat was treated with or without a single intravitreous injection of 5 μl of the test compound. […] The levels of Thy-1, HIF-1 Alpha, VEGF and MMP-9 mRNAs present in the retinas were determined using a real-time PCR technique. […] Relative quantification (a comparative method) was performed using the house keeping gene Beta-actin as the internal standard. This process allows the normalized quantification of the mRNA target (Ct) and takes into account the differences in the amount of total RNA added to each reaction (ΔCt). The relative HIF-1 Alpha/VEGF/MMP-9 expression changes were calculated as fold changes relative to the control with respect to the calibrator (ΔΔCt), which was represented by the control retina. […] The data obtained for each treatment were pooled, and a total percentage change relative to the control was calculated. […]
For orientation: Real-time PCR tracks product formation cycle by cycle.

Another assay deals with HIF-1 Alpha mRNA. Description: Real-time PCR of retinal mRNA after ischaemia/reperfusion: HIF-1 Alpha. It counts as in vivo, Wistar rats. To be noted: 100 μM SAC pre-treatment, 24 hours after I/R; control 0.56±0.15, vehicle 1.23±0.23; n=6. The protocol: as §1
The next assay relates to HIF-1 Alpha. Description: ELISA of HIF-1 Alpha protein in RGC-5 cells under H2O2 oxidative stress. It counts as cell-based. To be noted: 100 μM SAC 15-minute pre-treatment, 500 μM H2O2 24 hours; control 1254.39±116.03, H2O2 1874.72±133.46; n=6. How it is done:
(§2) In the enzyme-linked immunosorbent assay (ELISA), the cells (2.5×10^4 in each well) were plated into 96-well plates. Each well contains 200 μl of DMEM (control) without or with H2O2. Next, the cells were incubated at 37° C. for 1 day and then shifted to serum free medium for the following day. In order to stimulate oxidative stress, 500 μM H2O2 (Sigma-Aldrich 18304/k0250, St Louis, Mo., USA) was then added for 24 hours as described elsewhere. Depending on the experimental protocol, SAC or vehicle was added to some samples 15 minutes before adding H2O2. […] Total protein was determined using a bicinchoninic acid protein kit (Thermo Fisher Scientific Inc., IL, U.S.A.). The HIF-1 Alpha/VEGF/MMP-9 levels in the cells/medium were measured using various ELISA kits, namely HIF-1 Alpha (Uscn Life Science Inc., Wuhan 430056, China); VEGF-A (BMS277/2, Bender […], Austria) and MMP-9 Duoset (D911, R&D, Minneapolis, Minn., U.S.A.). […] The HIF-1 Alpha/VEGF/MMP-9 concentration of each sample was determined by constructing a standard curve using 100 μl of sample diluent containing various amounts of HIF-1 Alpha/VEGF/MMP-9 pure protein (0-1000 pg/ml). […] The absorbance (optical intensity, O.D.) was detected at 450 nm by spectrophotometer (ELx800, Biotek, Winooski, Vt., U.S.A.). […]

For the next assay, the system named is VEGF. The assay can be described thus: ELISA of VEGF protein in RGC-5 cells under H2O2 oxidative stress. It counts as cell-based. The following applies: 100 μM SAC 15-minute pre-treatment, 500 μM H2O2 24 hours; control 91.91±21.72, H2O2 250.55±39.63; n=6. How it is done:
as §2

With `C=CCSC[C@H](N)C(=O)O` [SAC, S-allyl L-cysteine], the “MMP-9 mRNA ratio in the retina” value with MMP-9 mRNA is 0.41±0.15. Further, in the assay with HIF-1 Alpha mRNA, the “HIF-1 Alpha mRNA ratio in the retina” value was 0.76±0.09. Besides, the “HIF-1 Alpha protein level (ELISA)” value in the assay with HIF-1 Alpha worked out at 1256.47 ± 157.62 pg/mL. The “VEGF protein level (ELISA)” value in the assay with VEGF came out at 121.61 ± 12.54 pg/mL.

(Values after patent US8569372B2, “Method for preventing or treating a disease, disorder or condition induced by retina ischemia” (priority 2011, dated 2013).)
